The values below are quoted from earlier work in patent US20110052690A1, “PROCESS FOR MANUFACTURE OF A MEDICAMENT WITH GRANULATION AND PAN COATING” (priority 2008, published 2011).

Structures can show the parent of a compound that is named as a salt.

For this data set the following is noted: plural daily dosing regime, compressed tablets.

Take `COc1ccc(C(CN(C)C)C2(O)CCCCC2)cc1` (centres unmarked) [venlafaxine hydrochloride, 1-[(2-dimethylamino)-1-(4-methoxyphenyl)ethyl] cyclohexanol]: the patients experiencing nausea entry was “about forty five” and the “patients in whom vomiting occurs” value is listed as “about seventeen”.
